Measured values: patent US9732075B2, “Benzimidazole-proline derivatives” (IDORSIA PHARMACEUTICALS LTD, priority 2012, dated 2017)

Experiments:
human orexin-2 receptor = human orexin-2 receptor (Homo sapiens (Human), UniProt O43614); test: In vitro assay: intracellular calcium measurements (FLIPR), antagonistic activity; assay type: cell-based; conditions: CHO cells expressing human orexin-2 receptor, orexin-A agonist, geometric mean, read-out: IC50 Ox2
Description: (§1) In Vitro Assay: Intracellular Calcium Measurements:
(§2) Chinese hamster ovary (CHO) cells expressing the human orexin-1 receptor and the human orexin-2 receptor, respectively, are grown in culture medium (Ham F-12 with L-Glutamine) containing 300 μg/ml G418, 100 U/ml penicillin, 100 μg/ml streptomycin and 10% heat inactivated fetal calf serum (FCS). The cells are seeded at 20,000 cells/well into 384-well black clear bottom sterile plates (Greiner). The seeded plates are incubated overnight at 37° C. in 5% CO2.
(§3) Human orexin-A as an agonist is prepared as 1 mM stock solution in MeOH: water (1:1), diluted in HBSS containing 0.1% bovine serum albumin (BSA), NaHCO3: 0.375 g/l and 20 mM HEPES for use in the assay at a final concentration of 3 nM.
(§4) Antagonists are prepared as 10 mM stock solution in DMSO, then diluted in 384-well plates using DMSO followed by a transfer of the dilutions into in HBSS containing 0.1% bovine serum albumin (BSA), NaHCO3: 0.375 g/l and 20 mM HEPES. On the day of the assay, 50 μl of staining buffer (HBSS containing 1% FCS, 20 mM HEPES, NaHCO3: 0.375 g/l, 5 mM probenecid (Sigma) and […] of the fluorescent calcium indicator fluo-4 AM (1 mM stock solution in DMSO, containing 10% pluronic) is added to each well. The 384-well cell-plates are incubated for 50 min at 37° C. in 5% CO2 followed by equilibration at RT for 30 min before measurement.
(§5) Within the Fluorescent Imaging Plate Reader (FLIPR Tetra, Molecular Devices), antagonists are added to the plate in a volume of 10 μl/well, incubated for 120 min and finally 10 μl/well of agonist is added. Fluorescence is measured for each well at 1 second intervals, and the height of each fluorescence peak is compared to the height of the fluorescence peak induced by an approximate EC70 (for example 5 nM) of orexin-A with vehicle in place of antagonist. The IC50 value (the concentration of compound needed to inhibit 50% of the agonistic response) is determined and may be normalized using the obtained IC50 value of a on-plate reference compound. Optimized conditions are achieved by adjustment of pipetting speed and cell splitting regime. The calculated IC50 values may fluctuate depending on the daily cellular assay performance. Fluctuations of this kind are known to those skilled in the art. Average IC50 values from several measurements are given as geometric mean values.

human orexin-1 receptor = human orexin-1 receptor (Homo sapiens (Human), UniProt O43613); test: as above; assay type: cell-based; conditions: CHO cells expressing human orexin-1 receptor, orexin-A agonist, geometric mean, read-out: IC50 Ox1
human orexin-1 receptor, sequence (O43613 whole entry): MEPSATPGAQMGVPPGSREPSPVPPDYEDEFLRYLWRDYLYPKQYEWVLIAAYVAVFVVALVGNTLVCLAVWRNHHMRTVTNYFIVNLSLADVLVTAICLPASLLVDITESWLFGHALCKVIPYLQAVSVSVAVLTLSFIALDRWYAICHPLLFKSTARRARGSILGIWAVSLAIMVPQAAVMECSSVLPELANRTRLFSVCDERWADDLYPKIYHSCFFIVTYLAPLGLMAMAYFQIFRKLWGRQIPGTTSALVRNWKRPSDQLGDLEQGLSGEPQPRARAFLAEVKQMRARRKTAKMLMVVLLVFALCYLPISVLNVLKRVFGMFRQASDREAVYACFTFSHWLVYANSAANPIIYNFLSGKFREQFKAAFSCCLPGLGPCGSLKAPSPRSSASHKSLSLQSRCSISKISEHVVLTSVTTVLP
Description: as §1, §2, §3, §4, §5

human orexin-2 receptor, sequence (O43614 whole entry): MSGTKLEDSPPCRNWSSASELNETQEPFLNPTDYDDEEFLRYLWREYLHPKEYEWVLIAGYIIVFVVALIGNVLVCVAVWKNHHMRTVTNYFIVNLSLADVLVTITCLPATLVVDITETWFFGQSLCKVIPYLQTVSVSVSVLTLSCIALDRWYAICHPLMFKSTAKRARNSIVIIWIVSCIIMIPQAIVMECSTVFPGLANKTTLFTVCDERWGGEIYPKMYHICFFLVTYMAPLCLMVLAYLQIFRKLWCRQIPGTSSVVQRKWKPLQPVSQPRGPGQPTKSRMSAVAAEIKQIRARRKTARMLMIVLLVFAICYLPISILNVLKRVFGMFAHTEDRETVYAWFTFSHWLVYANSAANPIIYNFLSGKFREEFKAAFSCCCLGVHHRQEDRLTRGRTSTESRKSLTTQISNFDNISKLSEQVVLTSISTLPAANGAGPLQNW

SMILES | IC50 (human orexin-2 receptor) | IC50 (human orexin-1 receptor)
CSc1cccc2nc([C@@H]3CCCN3C(=O)c3nc(C)sc3-c3cccc(C(F)(F)F)c3)[nH]c12 [Ex. 1.64] | 18 nM | 12 nM
Cc1ccc(-n2cccn2)c(C(=O)N2CC[C@H](C)[C@H]2c2nc3c(C)c(Cl)ccc3[nH]2)c1 [Ex. 4.64] | 800 nM | 5 nM
Cc1cc(C(=O)N2CCC[C@@]2(C)c2nc3c(C)c(Cl)ccc3[nH]2)c(-n2nccn2)cc1C [Ex. 5.41] | 2 nM | 2 nM
CSc1ccc2[nH]c([C@@H]3CCCN3C(=O)c3nc(C)ccc3-n3nccn3)nc2c1 [Ex. 1.180] | 50 nM | 1490 nM
COc1ccc2nc([C@@H]3CCCN3C(=O)c3cnc(C)nc3-c3ccccc3)[nH]c2c1 [Ex. 1.32] | 139 nM | 347 nM
COc1cc2nc([C@@H]3[C@@H](C)CCN3C(=O)c3nc(C)sc3-c3ccc(C(F)(F)F)cc3)[nH]c2cc1OC [Ex. 4.50] | 4220 nM | 373 nM
Cc1nc(C(=O)N2CCCC2c2nc3c(CO)cccc3[nH]2)c(-c2cccc(Cl)c2)s1 (centres unmarked) [Ex. 1.103] | 112 nM | 364 nM
Cc1nc(C(=O)N2CCCC2c2nc3c(C(F)(F)F)cccc3[nH]2)c(-c2ccccc2)s1 (centres unmarked) [Ex. 1.129] | 124 nM | 93 nM
COc1ccc(-n2nccn2)c(C(=O)N2CCC[C@H]2c2nc3cccc(SC)c3[nH]2)c1 [Ex. 1.166] | 4 nM | 45 nM
Cc1ccc(C(=O)N2CC[C@H](C)[C@H]2c2nc3c(C)c(Cl)ccc3[nH]2)c(-c2ncccn2)c1 [Ex. 4.174] | 132 nM | 12 nM
Cc1ccc(-c2ccccc2C(=O)N2CC[C@H](C)[C@H]2c2nc3c(C)cc(Cl)cc3[nH]2)cc1 [Ex. 4.92] | 212 nM | 5 nM
CO[C@H]1CN(C(=O)c2cc(C(F)(F)F)ccc2-n2nccn2)C(C)(c2nc3c(C)c(Cl)ccc3[nH]2)C1 (some centres unmarked) [Ex. 3.50] | 252 nM | 232 nM
CO[C@H]1C[C@@H](c2nc3c(C)c(Cl)ccc3[nH]2)N(C(=O)c2nc(C)sc2-c2cccc(Cl)c2)C1 [Ex. 3.8] | 12 nM | 22 nM
COc1cccc2[nH]c([C@@H]3[C@@H](C)CCN3C(=O)c3nc(C)sc3-c3cccc(Cl)c3)nc12 [Ex. 4.14] | 4030 nM | 15 nM
CO[C@H]1C[C@@H](c2nc3c(C)c(Cl)ccc3[nH]2)N(C(=O)c2nc(C)sc2-c2ccccc2)C1 [Ex. 3.5] | 74 nM | 109 nM
CSc1ccc2nc([C@@H]3CCCN3C(=O)c3c(C)cccc3-n3nccn3)[nH]c2c1 [Ex. 1.154] | 21 nM | 483 nM
Cc1c(Cl)ccc2[nH]c([C@]3(C)CCCN3C(=O)c3cc(C(F)(F)F)ccc3-n3nccn3)nc12 [Ex. 5.40] | 91 nM | 44 nM

Second part, the molecule after the results:

IC50 (human orexin-2 receptor) | IC50 (human orexin-1 receptor) | SMILES
16.5 nM | 5 nM | Cc1cc(C(=O)N2CCC[C@@]2(C)c2nc3cc(OC(F)(F)F)ccc3[nH]2)c(-n2nccn2)cc1C [Ex. 5.235]
119 nM | 58 nM | Cc1ccc(-c2cccc(C#N)c2)c(C(=O)N2CCC[C@@]2(C)c2nc3cc(C(F)(F)F)ccc3[nH]2)c1 [Ex. 5.190]
14 nM | 272 nM | C=C1C[C@@H](c2nc3cccc(C)c3[nH]2)N(C(=O)c2cc(OC)ccc2-n2nccn2)C1 [Ex. 6.111]
126 nM | 300 nM | COc1cc2nc([C@]3(C)CCCN3C(=O)c3sc(C)nc3-c3ccc(C)cc3)[nH]c2cc1OC [Ex. 5.75]
11 nM | 11 nM | C=C1C[C@@H](c2nc3cc(C(C)(C)C)ccc3[nH]2)N(C(=O)c2nc(C)sc2-c2ccc(C)c(C)c2)C1 [Ex. 6.57]
223 nM | 58 nM | COc1ccc(-n2nccn2)c(C(=O)N2CCC[C@@]2(C)c2nc3cc(OC(F)(F)F)ccc3[nH]2)c1 [Ex. 5.237]
8 nM | 326 nM | C=C1C[C@@H](c2nc3cc(C(C)(C)C)ccc3[nH]2)N(C(=O)c2cc(F)ccc2-n2nccn2)C1 [Ex. 6.160]
274 nM | 98 nM | Cc1ccc(-c2cccnc2)c(C(=O)N2CCC[C@@]2(C)c2nc3ccc(Cl)c(C)c3[nH]2)c1 [Ex. 5.217]
37 nM | 14 nM | COc1ccc(-c2ccc(C)cc2C(=O)N2CCC[C@@]2(C)c2nc3cc(C)c(C)cc3[nH]2)cc1 [Ex. 5.94]
2 nM | 15 nM | C=C1C[C@@H](c2nc3cc(OC)ccc3[nH]2)N(C(=O)c2cc(C)sc2-c2ccc(C)c(C)c2)C1 [Ex. 6.36]
28 nM | 24 nM | Cc1cc2nc([C@]3(C)CCCN3C(=O)c3ccccc3-c3cccc(F)c3)[nH]c2cc1C [Ex. 5.105]
15 nM | 20 nM | C=C1C[C@@H](c2nc3cc(OC)ccc3[nH]2)N(C(=O)c2nc(C3CC3)sc2-c2cccc(Br)c2)C1 [Ex. 6.28]
860 nM | 76 nM | Cc1ccc(-n2cccn2)c(C(=O)N2CCC[C@@]2(C)c2nc3cc(C(F)(F)F)ccc3[nH]2)n1 [Ex. 5.177]
25 nM | 573 nM | C=C1C[C@@H](c2nc3cc(C(C)(C)C)ccc3[nH]2)N(C(=O)c2c(C)cccc2-n2nccn2)C1 [Ex. 6.167]
10 nM | 76 nM | C=C1C[C@@H](c2nc3cccc(SC)c3[nH]2)N(C(=O)c2cc(C)ccc2-n2nccn2)C1 [Ex. 6.59]
6 nM | 4 nM | C=C1CC(c2nc3cccc(SC)c3[nH]2)N(C(=O)c2cc(C)sc2-c2ccc(C)c(C)c2)C1 (racemic) [Ex. 6.72]

IC50 (human orexin-2 receptor) | IC50 (human orexin-1 receptor) | SMILES
16 nM | 36 nM | COc1cc2nc([C@]3(C)CCCN3C(=O)c3cc(C)ccc3-c3ncccn3)[nH]c2cc1OC [Ex. 5.280]
19 nM | 216 nM | C=C1C[C@@H](c2nc3cc(OC)ccc3[nH]2)N(C(=O)c2nc(C)sc2-c2ccc(Cl)cc2)C1 [Ex. 6.5]
1 nM | 5 nM | C=C1C[C@@H](c2nc3cccc(C)c3[nH]2)N(C(=O)c2nc(C)sc2-c2ccc(Cl)c(Cl)c2)C1 [Ex. 6.113]
190 nM | 46 nM | COCCn1c([C@]2(C)CCCN2C(=O)c2cc(C)ccc2-c2cccc(OC)c2)nc2cc(C)c(C)cc21 [Ex. 7.53]
33 nM | 16 nM | C=C1CN(C(=O)c2nc(C)sc2-c2ccc(Cl)cc2)C(C)(c2nc3cc(OC)ccc3[nH]2)C1 (racemic) [Ex. 6.146]
21 nM | 23 nM | COc1ccc(-c2cccc(OC(F)(F)F)c2)c(C(=O)N2CCC[C@@]2(C)c2nc3c(C)c(Cl)ccc3[nH]2)c1F [Ex. 5.309]
15 nM | 20 nM | C=C1CC(c2nc3cc(SC)ccc3[nH]2)N(C(=O)c2nc(C3CC3)sc2-c2cccc(C)c2)C1 (centres unmarked) [Ex. 6.88]
239 nM | 26 nM | Cc1nc(C(=O)N2CCC[C@@]2(C)c2nc3c(F)c(F)ccc3[nH]2)c(-c2cccc(F)c2)s1 [Ex. 5.212]
43 nM | 56 nM | Cc1ccc2[nH]c([C@]3(C)CCCN3C(=O)c3ccccc3-c3ccccc3F)nc2c1C [Ex. 5.121]
714 nM | 39 nM | C[C@@]1(c2nc3ccc(C(F)(F)F)cc3[nH]2)CCCN1C(=O)c1nc(-c2ccccc2F)sc1-c1ccc(F)cc1 [Ex. 5.294]
33 nM | 367 nM | C=C1C[C@@H](c2nc3ccc(OC)cc3[nH]2)N(C(=O)c2nc(C)sc2-c2ccc(F)cc2)C1 [Example 6.1, (S)-(5-(4-fluorophenyl)-2-methylthiazol-4-yl)(2-(6-methoxy-1H-benzo[d]imidazol-2-yl)-4-methylenepyrrolidin-1-yl)methanone]
58 nM | 24 nM | Cc1ccc(C(=O)N2CCC[C@@]2(C)c2nc3cc(F)c(Br)cc3[nH]2)c(-n2nccn2)c1 [Ex. 5.130]
68 nM | 234 nM | C=C1CC(c2nc3cc(C(C)(C)C)ccc3[nH]2)N(C(=O)c2nc(C3CC3)sc2-c2cccc(C)c2)C1 (centres unmarked) [Ex. 6.96]
26 nM | 112 nM | Cc1cc2nc([C@]3(C)CCCN3C(=O)c3ccccc3-n3nccn3)[nH]c2cc1C [Ex. 5.61]
6 nM | 5 nM | Cc1nc(C(=O)N2CCC[C@@]2(C)c2nc3c(C)c(C)c(Br)cc3[nH]2)c(-c2ccccc2C)s1 [Ex. 5.271]
80 nM | 14 nM | Cc1nc(C(=O)N2CCC[C@@]2(C)c2nc3cc(OC(F)(F)F)ccc3[nH]2)c(-c2ccc(C)c(C)c2)s1 [Ex. 5.245]
